According to patent publication US4452809A, “Trans-4-(2-chlorophenoxy)-1-ethyl-3-pyrrolidinol and anti-depressant use thereof” (A. H. Robins Company, Inc., priority 1983, dated 1984):
Where a name gives a salt, the structure may show the parent alone.

Columns and labels:
[1] = system: depressant effects induced by tetrabenazine; assay: Antitetrabenazine test in mice (blocking of tetrabenazine-induced depressant effects); format: in vivo; conditions: Mus musculus, ip, compound intraperitoneally, tetrabenazine intravenously
From the text: Compounds preferred for their antidepressant activity have the formula: [drawing 4] Illustrative of the antidepressant activity of compounds of Formula Ia are the effective dosages determined by the foregoing anti-tetrabenazine test.

cardiac arrhythmia = assay: Counteracting of ouabain-induced cardiac arrhythmia in anesthetized dogs; format: in vivo, adult mongrel dogs
Protocol: The procedure is carried out under barbiturate anesthesia using adult mongrel dogs of either sex weighing from 8 to 14 kg. A Grass Model 7 polygraph was used for recording femoral arterial blood pressure (Statham P23AC Transducer) and the electrocardiogram (Grass 7P4 Preamplifier). Ouabian was given intravenously in an initial dose of 40γ/kg in a second dose of 20γ/kg, given 30 minutes after the first dose, and in subsequent doses of 10γ/kg which were repeated at 15 minute intervals as required for producing cardiac arrhythmias that persisted for at least 15 minutes. When the arrhythmias were established the test compounds were administered by infusion (Harvard Model 942 Infusion Pump) into a femoral vein at a rate of 1 mg/kg/min. Concentrations of compounds were adjusted according to the weight of the dog to allow a volume infusion of 1 ml/min. Compounds that are considered to be active as antiarrhythmic agents cause reversion to sinus rhythm which is maintained for at least 60 minutes.

Row | Structure (SMILES) | ED50 [1] [mg/kg] | minimal effective dose (cardiac arrhythmia; Canis lupus familiaris, iv, 1 h, barbiturate anesthesia, ouabain arrhythmia, infusion into femoral vein 1 mg/kg/min, reversion to sinus rhythm maintained at least 60 minutes, read-out: antiarrhythmic activity, minimum effective dose) [mg/kg] | antiarrhythmic activity (in words) (cardiac arrhythmia; ouabain-induced arrhythmia)
1 | CN1C[C@@H](O)[C@H](Oc2ccccc2)C1 (relative stereo) [Example 3, Trans-1-methyl-4-phenoxy-3-pyrrolidinol] | 3.7 |  | 
2 | CCN1C[C@@H](O)[C@H](Oc2ccccc2)C1 (relative stereo) [Example 46, Trans-1-ethyl-4-phenoxy-3-pyrrolidinol Oxalate Hydrate (4:1)] | 3.5 |  | 
3 | CCN1C[C@@H](O)[C@H](Oc2ccccc2Cl)C1 (relative stereo) [Example 48, Trans-4-(2-chlorophenoxy)-1-ethyl-3-pyrrolidinol Hydrochloride] | 2.8 |  | 
4 | CCN1C[C@@H](O)[C@H](Oc2c(Cl)cccc2Cl)C1 (relative stereo) [Example 49, Trans-4-(2,6-dichlorophenoxy)-1-ethyl-3-pyrrolidinol Hydrochloride] | 4.8 |  | 
5 | CCN1C[C@@H](O)[C@H](Oc2cccc3ccccc23)C1 (relative stereo) [Example 55, Trans-1-ethyl-4-(1-naphthalenyloxy)-3-pyrrolidinol Hydrochloride] |  | 10.7 | exceptional antharrhythmic activity
